Measurements taken from ChEMBL document CHEMBL3804822 (Bioorg Med Chem, 2016).
The source made the active and inactive calls. The rule behind the calls is not given here.

Assays:
Estrogen receptor [1] = biological target: T1, Estrogen receptor (Homo sapiens, UniProt P03372); assay: Displacement of Fluormone ES2 from human recombinant full length untagged-ERalpha by fluorescence polarization competition binding assay
T1 sequence (P03372 whole entry): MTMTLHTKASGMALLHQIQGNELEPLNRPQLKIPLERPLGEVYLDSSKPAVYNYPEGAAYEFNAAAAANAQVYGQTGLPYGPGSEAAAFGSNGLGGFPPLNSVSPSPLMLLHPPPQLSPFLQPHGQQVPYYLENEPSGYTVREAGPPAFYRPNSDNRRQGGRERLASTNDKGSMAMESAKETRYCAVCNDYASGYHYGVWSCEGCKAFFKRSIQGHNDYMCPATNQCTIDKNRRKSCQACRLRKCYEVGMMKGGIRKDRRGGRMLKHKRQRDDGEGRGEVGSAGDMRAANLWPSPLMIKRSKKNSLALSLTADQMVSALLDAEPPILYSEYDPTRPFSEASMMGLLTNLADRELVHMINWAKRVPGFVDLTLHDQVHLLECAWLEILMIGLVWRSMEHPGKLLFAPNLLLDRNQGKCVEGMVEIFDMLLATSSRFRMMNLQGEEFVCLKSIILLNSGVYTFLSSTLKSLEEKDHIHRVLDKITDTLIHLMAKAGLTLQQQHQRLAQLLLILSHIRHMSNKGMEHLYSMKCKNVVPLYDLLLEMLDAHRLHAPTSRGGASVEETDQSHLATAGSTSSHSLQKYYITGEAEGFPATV

[2] = biological target: T2, Estrogen receptor (Homo sapiens) (UniProt P03372); assay: Down regulation of ERalpha in human MCF7 cells after 6 hrs in presence of 10 uM proteasome inhibitor MG132 by Western blot analysis; format: cell-based
T2 sequence (whole entry): T1 sequence (P03372 whole entry)

[3] = biological target: T2, Estrogen receptor (Homo sapiens); assay: Down regulation of ERalpha in human MCF7 cells at 10 uM after 6 hrs by Western blot analysis in absence of MG132
Estrogen receptor [4] = biological target: T1, Estrogen receptor; assay: Antagonist activity at ERalpha (unknown origin) transfected in 17beta-estradiol induced-HEK293 cells assessed as inhibition of estradiol-mediated protein transcriptional activity after 16 to 20 hrs by Luciferase reporter gene assay

Row | Structure (SMILES) | IC50 (Estrogen receptor [1]) [nM] | Activity [2] | Activity [3] | IC50 (Estrogen receptor [4]) [nM]
1 | CCCCCCCCCCCCCCCCCCNCCOc1ccc(C(=O)c2c(-c3ccc(O)cc3)sc3cc(O)ccc23)cc1 | 1.8 | – | – | –
2 | CCCCCCCCCCCCCCCCNCCOc1ccc(C(=O)c2c(-c3ccc(O)cc3)sc3cc(O)ccc23)cc1 | 11 | – | – | –
3 | CCCCCCCCCCCCCCNCCOc1ccc(C(=O)c2c(-c3ccc(O)cc3)sc3cc(O)ccc23)cc1 | 28 | – | – | –
4 | CCCCCCNCCOc1ccc(C(=O)c2c(-c3ccc(O)cc3)sc3cc(O)ccc23)cc1 | 61 | – | – | –
5 | CCCCCCCCNCCOc1ccc(C(=O)c2c(-c3ccc(O)cc3)sc3cc(O)ccc23)cc1 | 49 | – | – | –
6 | CCCCCCCCCCNCCOc1ccc(C(=O)c2c(-c3ccc(O)cc3)sc3cc(O)ccc23)cc1 | 40 | inactive | Dose-dependent effect | 0.68
7 | CCCCCCCCCCCCNCCOc1ccc(C(=O)c2c(-c3ccc(O)cc3)sc3cc(O)ccc23)cc1 | 5.9 | inactive | Dose-dependent effect | 0.09
